Measurements: US20140323428A1, “ANTINEURITIC PHARMACEUTICAL COMBINATION AND COMPOSITIONS” (priority 2011, published 2014)
Entries after “also recorded” stand apart in the source; their conditions may differ. Where two headings read alike, the source gives them in different places.

Key:
[1] = system: rats subjected to L5/L6 spinal nerve ligation; experiment: Tactile allodynia (von Frey filaments, 50% withdrawal threshold, % MPE) in rats with L5/L6 spinal nerve ligation; format: in vivo, rat; conditions: for ED50: Rattus norvegicus, read-out: ED50 of the anti-allodynic effect, antiepileptic alone; for Effect on 50% withdrawal threshold (anti-allodynic effect): oxcarbazepine 30-300 mg/kg, pregabalin 0.3-30 mg/kg, vitamin B12 0.06-6 mg/kg
Experimental: 6-week-old female Wistar rats having a body weight of 140-160 g, were used. Each rat was studied only once and sacrified. The Guidelines for pain investigations in animals (Zimmermann, 1983) were used in all the experiments.
The rats were anesthesized via intraperitoneal route with a mixture of ketamine/xylazine (45 and 12 mg/kg, respectively). A partial incision was carried out in the left transverse lumbar area for isolating and ligating the L5 and L6 left spinal nerves with a silk suture 6-0. The ligation was carried out next to the formation of the sciatic nerve and distal to the dorsal root ganglion. Subsequently, the wound was sutured. Conduct tests were performed 12 days after surgery.
For the determination of tactile allodynia, the rats were placed in individual plastic boxes having a stainless steel metallic mesh bottom during 30 minutes, for their adaptation. The tactile threshold test is based in the induction of the animal's left paw withdrawal to gentle mechanical stimuli. The paw was stimulated by applying mechanical force using different Von Frey filaments ranging from 2.36 g to 6.65 g. The thinner the filament's thickness is, the fewer force is applied, and viceversa. For stimulating the animal's paw, the intermediate filament (3.41 g) was firstly used. The left paw elevation in ten seconds was taken as a positive response and a stimulus with a lower caliber filament was applied. If no withdrawal of the animal's paw occurred, it was considered as a negative response, then a stronger stimulus was applied with the next filament until the animal responded.
Once a change in the response took place, either positive or negative, the stimulation was carried out 4 more times, taking a series of 6 patterns of positive and negative responses (Chaplan et al., 1994). The response patterns were tabulated and the 50% response threshold was calculated by using the Dixon formula (1980).
Graphs of the 50% withdrawal threshold (g) as a function of time (h) were constructed from the obtained data
50% withdrawal threshold (g)=(10^[Xf+Kδ])/10,000
From the data of the 50% withdrawal threshold, bar graphs and dose response curves were constructed for the percentage of anti-allodynic effect represented as the percentage of the maximum possible effect (% MPE), by using the following formula:
% MPE=[(AUC drug−AUC vehicle/(AUC sham−AUC vehicle)]×100
In both curves the value of the ED50 was determined.

[2] = system: rats having neuropathic pain; experiment: Motor incoordination observed after oral administration in the allodynia study; conditions: rat, in vivo, 300 mg/kg
Experimental: However, with the higher dose (300 mg/kg) the effect was maintained even for 24 hours.
With the higher dose (30 mg/kg) motor incoordination was observed between 1 and 7 hours, whereas with the 10 mg/kg dose, incoordination was observed between 3 and 4 hours after the administration.

[3] = system: patients; conditions: doses of from 300 to 600 mg; cited from earlier work
[4] = system: plasmatic proteins; conditions: cited from earlier work
[5] = cited from earlier work
[6] = system: tactile allodynia induced by the linkage of the spinal nerves L5 and L6; conditions: cited from earlier work

Row | Compound | ED50 ([1]; oral, single agent, from dose-response curves) [mg/kg] | Time of maximum anti-allodynic effect ([1]; oral) | Time for which the anti-allodynic effect was maintained ([1]; oral, higher dose 300 mg/kg) [h] | Effect on 50% withdrawal threshold (anti-allodynic effect) ([1]; oral) | Motor incoordination, time window after administration [2] [h] | Adverse reaction: dizziness [3] | Adverse reaction: drowsiness [3] | Binding to plasmatic proteins [4] | Bioavailability ([5]; after an oral dose) [%] | Time of maximum plasma peaks ([5]; after an oral dose) | Excreted by the urinary route ([5]; in vivo) | Half-life of elimination ([5]; in vivo) [h] | Metabolism ([5]; in vivo) | Oral absorption ([5]; oral) | ED50 ([1]; po) [mg/kg] | Analgesic effect at 24 hours ([1]; oral, 24 hours after administration) | Effect on tactile allodynia [6] | Analgesic effect at 8 hours ([1]; oral, 8 hours after administration)
1 | NC(=O)N1c2ccccc2CC(=O)c2ccccc21 [oxcarbazepine] | 78.8 | about 3 hours | ≥ 24 | dose-dependent way; also recorded: significantly increased | 2 to 8 |  |  |  |  |  |  |  |  |  |  |  |  | 
2 | CC(C)C[C@H](CN)CC(=O)O [pregabalin] |  | about 2 hours |  | dose-dependent way; also recorded: significantly increased |  | 27-46% | 15-25% | does not link to plasmatic proteins | 90 | an hour and a half | about 98% | 6.3 | minimal metabolism | quickly absorbed | 3.3 | no longer observed |  | 
3 | cyanocobalamin [vitamin B12] |  | about 3 hours |  | significantly increased |  |  |  |  |  |  |  |  |  |  |  |  | capable of reducing tactile allodynia | no longer observed
